The values that follow come from US12083105B2, “Compositions and methods for treating adult-onset neuronal ceroid lipofuscinosis (Kufs disease)” (CORNELL UNIVERSITY, priority 2020, dated 2024).

For this assay, the system named is CSPα^WT, CSPα^L115R and CSPα^L116Δ. Kind of assay: Fe—S cluster disruption of purified recombinant CSPα oligomers (SDS-PAGE, immunoblotting). Type of assay: biochemical. Conditions: purified recombinant proteins; 1 mM, 2 h at room temperature; FIG. 2B. As to the method: FIGS. 2A-2F show dissociation of CSPα ANCL mutant protein oligomers by acid treatment. […] Purified recombinant CSPα^WT, CSPα^L115R CSPα^L116Δ, and SSPα proteins were incubated with either 1 mM L-cysteine for 2 h at room temperature (+L-Cys) or 0.1 N HCl for 20 min at room temperature (+HCl). The proteins were separated by SDS-PAGE, and resultant gels were subjected to immunoblotting using anti-CSPα antibody. A representative immunoblot is shown. Key: Mono=monomer; Oligo=oligomers of higher mass than dimer. Mono=monomer; Oligo=oligomers; grey arrowheads=possible dimer and tetramer. […] The proteins were subjected to increasing trypsin concentrations (0, 0.01, 0.05, 0.1, and 1.0 mg/ml) for 20 min at 4° C., followed by immediate inhibition of trypsin with addition of phenylmethylsulfonyl fluoride (PMSF) to 1 mM. After proteolysis was stopped, CSPα oligomers were disrupted with 0.1 N HCl for 20 min at room temperature, followed by 10 min of boiling in Laemmli sample buffer. The resultant proteins were separated by SDS-PAGE, and subjected to immunoblotting using anti-CSPα antibody. […] The proteins were first incubated with 0.1 N HCl for 20 min at room temperature and then neutralized with 1 M sodium cacodylate to pH 7.0. Limited proteolysis was then performed using increasing trypsin concentrations (0, 0.01, 0.05, 0.1, and 1.0 mg/ml) for 20 min at 4° C. […]

On to `N[C@@H](CS)C(=O)O` [L-cysteine], for which the “disassembly of oligomers of CSPα^WT, CSPα^L115R and CSPα^L116Δ” value is on record as “no significant effect”.
